The text below walks through data of patent US11466054B2, “Inhibitors of metastasis” (BIOMARCK PHARMACEUTICALS LTD., priority 2013, dated 2022).

The test system of test [1] is Human adenocarcinoma cells (PC-9). Briefly: Orthotopic lung cancer implantation model in SCID mice, i.p. versus inhalation (Example 4). It counts as in vivo. On the procedure: In this study, inhibition of lung cancer metastasis by peptide BIO-11006 in an orthotopic lung cancer implantation model in SCID mice assessed. Human adenocarcinoma cells (PC-9) (1-2×10^5) were suspended in 40 μL of PBS, pH 7.4 containing 0.5 mg/mL of Matrigel™ (BD Bioscience) and injected into the left lung of SCID mice (n=3) using a syringe with 29 gauge needle. BIO-11006 (100 μM, in PBS) was administered either (a) by i.p. injection (50 μL) once daily for 22 days starting at 3 days post cancer cell inoculation or (b) by aerosol inhalation using a Nebulizer Delivery System (Aeroneb Lab) over 30 min once daily for 22 days starting at 3 days post cancer cell inoculation. […] Both i.p. and aerosol administration of BIO-11006 reduced cancer cell metastasis by more than 50% in the right lung and heart, and 100% in the diaphragm. Thus, both routes of administration had significant inhibitory effects on cancer cell metastasis.

For the next test, the system named is A549 cells. Briefly: Anti-metastatic efficacy in SCID mice given A549 cells via the tail vein. The settings on record: Day 53; for No. of metastatic nodules in lungs Mean ± SEM: aerosol 100 μM every other day for 7 weeks. It counts as in vivo. On the procedure:
Female NOD.CB17-Prkdc^scid/NCrHsd, Mus musculus mice (Harlan, The Netherlands), housed in individually ventilated cages, were randomized into six groups of eight mice each. A549 cells (2.5×10^6) were injected into the mice via the tail vein. The control group received aerosolized vehicle PBS; while the groups 2 and 3 received the aerosolized test compound BIO-11006 either from −1 day before the cancer cells injection (group 2) or from +3 days after the cancer cell injection (group 3) on every other day for 7 weeks via nebulizer (Aeroneb Lab). Groups 4 and 5 received the aerosolized test compound MANS peptide either from −1 day before the cancer cell line injection (group 4) or from +3 days after the cell line injection (group 5) on every other day for 7 weeks via a nebulizer (Aeroneb Lab). For aerosol delivery, solution of each test compound (100 μM) was prepared in PBS, pH 7.0. For each treatment, 5 mL of test compound solution was aerosolized over 30 minutes into a chamber containing four mice at a time. The mice were monitored for body weight every other day for 7 weeks.
One group of mice (n=7) served as normal control. These were untreated naïve mice used to monitor the health status of mice during the study period. All animals from all groups were sacrificed on Day 53. FIG. 15 compares number of metastatic nodules in lungs after respective administration of BIO-11006 and MANS peptide on Day 53 following A549 cell injection. […] There were few focal tumor nodules in ⅞ of mice treated with BIO-11006 peptide starting at either Day −1 or Day +3 relative to A549 cell injection.

Setting [2] is: aerosol inhalation 100 μM over 30 min once daily for 22 days from 3 days post inoculation.
Where [3] appears, read: i.p. injection 50 μL of 100 μM once daily for 22 days from 3 days post inoculation.

Where no end group is shown, it is not given here.

In the case of “N-acetyl-GAQFSKTAAK (Ac-GAQFSKTAAK; listed as Homo sapiens) [BIO-11006]”, in test [1] (setting [2]), the “reduction of cancer cell metastasis in the diaphragm” value came out at 100%; the “reduction of cancer cell metastasis in the right lung and heart” value is recorded as “more than 50%”. In addition, in test [1] (setting [3]), the “reduction of cancer cell metastasis in the diaphragm” value was 100%; the “reduction of cancer cell metastasis in the right lung and heart” value was “more than 50%”. In the test with A549 cells (+3 Day treatment group), the “animals with few focal tumor nodules” value is “Few focal tumor nodules in 7/8”, the distant metastasis result was “No distant metastasis” and the “No. of metastatic nodules in lungs Mean ± SEM” value came out at 21 ± 6. In addition, in the test on A549 cells (−1 Day treatment group), the “animals with few focal tumor nodules” value was “Few focal tumor nodules in 7/8”, the distant metastasis result was “No distant metastasis” and the “No. of metastatic nodules in lungs Mean ± SEM” value was 34 ± 14.
